Measurements: patent EP4729530A1, “NOVEL PEPTIDE AND USE THEREOF” (Gemvax & Kael Co., Ltd., priority 2023, dated 2024)

How the values were obtained:
[1] = system: AT8 (phospho-Tau S202/T205); assay: Immunofluorescence staining of brain tissue (AT8) for tau hyperphosphorylation; format: in vivo, mouse; conditions: GV2002 2 mg/kg subcutaneous, 3 times/week, 21 weeks
Procedure: (§1) In vivo experiments were performed on the 4R tauopathy mouse groups shown in FIG. 4 according to the schedule shown in FIG. 5 and the outline in Table 3 below.
The brains of a 4R tauopathy mouse model administered GV2002 for 5 months, from 7.5 to 12.5 months of age, were removed and analyzed using immunofluorescence staining.
For brain tissue sampling, the 4R tauopathy mouse models were anesthetized, and saline was perfused intracardially, after which the blood was removed using a perfusion pump device. Then, the brains were removed and weighed. The brains to be used for tissue staining experiments were fixed in a 4% PFA solution for 24 hours. The fixed brain tissue was immersed in a 20% sucrose solution for 24 hours and then in a 30% sucrose solution for 48 hours for dehydration. The dehydrated brain tissue was removed, excess moisture was eliminated, and the brain tissue and a cryoembedding agent (OCT compound) were placed together in a mold to protect the tissue, after which the brain tissue was rapidly frozen using dry ice. The frozen brain tissue mold was stored in a -80 °C freezer. Afterwards, the brain tissue was sectioned into 30-µm-thick sections using a cryostat and stored in a 0.05% sodium azide solution.
For immunofluorescence staining of brain tissue, 30-µm-thick frozen brain sections were selected according to brain region, washed three times with PBS for 10 minutes each, fixed in 3.7% formaldehyde for 5 minutes, and washed three times with PBS for 10 minutes each. The brain tissue samples were permeabilized in 0.3% PBS-T solution, and then blocked in 5% BSA solution in PBS for 1 hour. The brain tissues were incubated overnight in 3% BSA and 0.1% Tween-20 solution in PBS containing AT8 (phospho-Tau S202/T205) antibody diluted at a ratio of 1:200, which targets tau hyperphosphorylation. The brain tissues were washed three times with PBS for 10 minutes each. The brain tissues were then incubated for 1 hour at room temperature in 3% BSA and 0.1% Tween-20 solution in PBS containing secondary antibody diluted 1:500. The brain tissues were immersed in PBS solution and washed once for 10 minutes. […] The brain tissues were immersed in PBS solution and washed three times for 10 minutes each, and fluorescence imaging was performed using a slide scanner.
To obtain fluorescence images of the stained brain tissue, brain tissue slides were scanned using a Zeiss Axio Scan (Zeiss, Oberkochen, Germany). AT8 fluorescence levels in each brain tissue region obtained through fluorescence imaging, i.e., the somatosensory cortex, hippocampus (CA1), motor cortex, and substantia nigra, were calculated using ImageJ software (NIH). The calculated values were analyzed using one-way ANOVA with Dunnett's multiple comparisons test.

[2] = system: total tau (Tau5) and phosphorylated tau (pS199, pS396); assay: Brain lysate analysis by tau immunoblot (soluble and insoluble fractions); format: in vivo, mouse; conditions: GV2002 2 mg/kg subcutaneous, 3 times/week, 21 weeks
Procedure: as §1
Brain lysates from a 4R tauopathy mouse model administered GV2002 for five months, from 7.5 to 12.5 months of age, were obtained. Soluble and insoluble fraction samples were subjected to immunoblotting using antibodies against total tau (Tau5) and phosphorylated tau (pS199, pS396), and the levels of total and phosphorylated tau were quantitatively analyzed.
Mouse models were anesthetized, saline was intracardially perfused, and blood was removed using a perfusion pump device. The brain was then removed and weighed. 1 mL of RIPA buffer (containing protease and phosphatase inhibitor cocktails) was added to the extracted brain and homogenized.
The homogenized brain lysates were transferred to EP tubes and incubated on an orbital shaker at 4°C for 2 hours. After centrifugation at 13,000 rpm for 20 minutes at 4°C, the supernatant (soluble fraction) was collected in a new EP tube and stored at -80°C.
To prepare samples for immunoblotting, the concentrations of the fractionated samples were quantified using the Bradford protein quantification assay. RIPA buffer and 4X SDS Laemmli sample buffer (containing 2.5% β-mercaptoethanol for reducing conditions) were added to each sample to adjust the final protein concentration to 2 mg/mL. The samples were then boiled at 97°C for 5 minutes.
Meanwhile, to obtain the insoluble fraction, the remaining pellet after supernatant removal was resuspended in RIPA buffer containing 1 M sucrose (1 mL) and DNase I (1 mg/mL). […]
20 µg of each brain lysate sample of soluble and insoluble fractions were loaded onto a 10% SDS-PAGE gel (SDS-PAGE running buffer: 1X Tris/Glycine/SDS buffer in 3' D.W.), and electrophoresis was performed at 80 V for 30 minutes followed by 90 V for 1 hour. […] Protein bands of the membrane were detected using ChemiDoc with ECL solution, which is HRP substrate, and band intensities were quantified using ImageJ software (NIH).

[3] = soluble fraction of brain lysate

Q: Ac-EARPALLTSRLRFIPK-NH2 [GV2002] was tested. Which “AT8 fluorescence intensity, reduction compared to the vehicle-administered group” value (from here on “AT8 fluorescence intensity, reduction”) ([1]; hippocampus region) did it give?
A: Its value is 62%.

Q: And the “AT8 fluorescence intensity, reduction” value ([1]; motor cortex region)?
A: Its value is 65%.

Q: And the “AT8 fluorescence intensity, reduction” value ([1]; somatosensory cortex region)?
A: The value was 57%.

Q: And the “AT8 fluorescence intensity, reduction” value ([1]; substantia nigra region)?
A: The value was 69%.

Q: What about the “level of insoluble tau, reduced to (compared to the vehicle-administered group)” value ([2]; insoluble fraction of brain lysate, total tau (Tau5)) of the same substance?
A: Its value is 57%.

Q: What about the “phosphorylated tau pS199, reduced to (compared to the vehicle-administered group)” value [2, 3] of the same substance?
A: The value was 66%.

Q: What about the “phosphorylated tau pS396, reduced to (compared to the vehicle-administered group)” value [2, 3] of the same substance?
A: Its value is 56%.
